Data published in patent publication US4684664A, “Derivatives of β-(4-isocyano-1,2,3,4-diepoxycyclopentyl) acrylic acid” (Kureha Kagaku Kogyo Kabushiki Kaisha, priority 1984, dated 1987).
Values after ≈ are worked out from the molar mass of the structure shown.

What was measured:
Assay type in all cases: cell-based
[1] = system: Streptococcus pyogenes Cook; experiment: Antibacterial activity, agar-dilution MIC, organism No. 4; conditions: Streptococcus pyogenes; Organism No. 4, bouillon-agar; read-out: Minimum Inhibitory Concentration
Source text: (§1) Agar-dilution method was used for determination of the antibacterial activity and antifungal activity while using bouillon-agar culture medium, and the minimum inhibitory concentration of the specimen was expressed by μg/ml of the culture medium.

[2] = system: Pseudomonas aeruginosa PAO 1; experiment: Antibacterial activity, agar-dilution MIC, organism No. 17; conditions: Pseudomonas aeruginosa, PAO1; Organism No. 17, bouillon-agar; read-out: Minimum Inhibitory Concentration
Source text: as §1

[3] = system: Enterobacter aerogenes ATCC 13048; experiment: Antibacterial activity, agar-dilution MIC, organism No. 23; conditions: Klebsiella aerogenes, ATCC13048; Organism No. 23, bouillon-agar; read-out: Minimum Inhibitory Concentration
Source text: as §1

[4] = system: Salmonella shottmuelleri 8006; experiment: Antibacterial activity, agar-dilution MIC, organism No. 11; conditions: Salmonella, 8006; Organism No. 11, bouillon-agar; read-out: Minimum Inhibitory Concentration
Source text: as §1

[5] = system: Candida albicans IAM 4905; experiment: Antifungal activity, agar-dilution MIC, organism No. 29; conditions: Candida albicans, IAM4905; Organism No. 29, bouillon-agar; read-out: Minimum Inhibitory Concentration
Source text: as §1

[6] = system: Klebsiella pneumoniae PCI-602; experiment: Antibacterial activity, agar-dilution MIC, organism No. 7; conditions: Klebsiella pneumoniae, PCI602; Organism No. 7, bouillon-agar; read-out: Minimum Inhibitory Concentration
Source text: as §1

[7] = system: Escherichia coli NIHJ-JC-2; experiment: Antibacterial activity, agar-dilution MIC, organism No. 5; conditions: Escherichia coli, NIHJJC2; Organism No. 5, bouillon-agar; read-out: Minimum Inhibitory Concentration
Source text: as §1

[8] = system: Streptococcus pyogenes IFO 3340; experiment: Antibacterial activity, agar-dilution MIC, organism No. 26; conditions: Streptococcus pyogenes, IFO3340; Organism No. 26, bouillon-agar; read-out: Minimum Inhibitory Concentration
Source text: as §1

[9] = system: Staphylococcus aureus MS 353; experiment: Antibacterial activity, agar-dilution MIC, organism No. 3; conditions: Staphylococcus aureus, MS353; Organism No. 3, bouillon-agar; read-out: Minimum Inhibitory Concentration
Source text: as §1

Salmonella typhi 901 = experiment: Antibacterial activity, agar-dilution MIC, organism No. 9; conditions: Salmonella enterica, TYPHI, read-out: Minimum Inhibitory Concentration
Source text: as §1

[10] = system: Pseudomonas aeruginosa IFO 3445; experiment: Antibacterial activity, agar-dilution MIC, organism No. 15; conditions: Pseudomonas aeruginosa, IFO3445; Organism No. 15, bouillon-agar; read-out: Minimum Inhibitory Concentration
Source text: as §1

[11] = system: Pseudomonas aeruginosa NCTC 10490; experiment: Antibacterial activity, agar-dilution MIC, organism No. 16; conditions: Pseudomonas aeruginosa, NCTC10490; Organism No. 16, bouillon-agar; read-out: Minimum Inhibitory Concentration
Source text: as §1

[12] = system: Salmonella paratyphi-A 1015; experiment: Antibacterial activity, agar-dilution MIC, organism No. 10; conditions: Salmonella enterica, PARATYPHI, read-out: Minimum Inhibitory Concentration
Source text: as §1

[13] = system: Aspergillus niger IFO 6342; experiment: Antifungal activity, agar-dilution MIC, organism No. 30; conditions: Aspergillus niger, IFO6342; Organism No. 30, bouillon-agar; read-out: Minimum Inhibitory Concentration
Source text: as §1

[14] = system: Proteus mirabilis IFO 3849; experiment: Antibacterial activity, agar-dilution MIC, organism No. 19; conditions: Proteus mirabilis, IFO3849; Organism No. 19, bouillon-agar; read-out: Minimum Inhibitory Concentration
Source text: as §1

[15] = system: Escherichia coli K12 C600 IAM 1264; experiment: Antibacterial activity, agar-dilution MIC, organism No. 6; conditions: Escherichia coli, IAM1264; Organism No. 6, bouillon-agar; read-out: Minimum Inhibitory Concentration
Source text: as §1

[16] = system: Staphylococcus aureus Terajima; experiment: Antibacterial activity, agar-dilution MIC, organism No. 2; conditions: Staphylococcus aureus; Organism No. 2, bouillon-agar; read-out: Minimum Inhibitory Concentration
Source text: as §1

Proteus vulgaris HX-19 = experiment: Antibacterial activity, agar-dilution MIC, organism No. 21; conditions: Proteus vulgaris, HX19; Organism No. 21, bouillon-agar; read-out: Minimum Inhibitory Concentration
Source text: as §1

[17] = system: Staphylococcus aureus FDA 209PJc-1; experiment: Antibacterial activity, agar-dilution MIC, organism No. 1; conditions: Staphylococcus aureus, FDA209PJC1; Organism No. 1, bouillon-agar; read-out: Minimum Inhibitory Concentration
Source text: as §1

[18] = system: Proteus morganii IFO 3848; experiment: Antibacterial activity, agar-dilution MIC, organism No. 18; conditions: Morganella morganii, IFO3848; Organism No. 18, bouillon-agar; read-out: Minimum Inhibitory Concentration
Source text: as §1

[19] = system: Micrococcus luteus ATCC 9341; experiment: Antibacterial activity, agar-dilution MIC, organism No. 25; conditions: Micrococcus luteus, ATCC9341; Organism No. 25, bouillon-agar; read-out: Minimum Inhibitory Concentration
Source text: as §1

[20] = system: Salmonella typhimurium IID 971; experiment: Antibacterial activity, agar-dilution MIC, organism No. 8; conditions: Salmonella enterica; Organism No. 8, bouillon-agar; read-out: Minimum Inhibitory Concentration
Source text: as §1

[21] = system: Bacillus subtilis ATCC 6633; experiment: Antibacterial activity, agar-dilution MIC, organism No. 14; conditions: Bacillus subtilis, ATCC6633; Organism No. 14, bouillon-agar; read-out: Minimum Inhibitory Concentration
Source text: as §1

Enterobacter cloacae 963 = experiment: Antibacterial activity, agar-dilution MIC, organism No. 24; conditions: Enterobacter cloacae, 963; Organism No. 24, bouillon-agar; read-out: Minimum Inhibitory Concentration
Source text: as §1

[22] = system: Proteus rettgeri IFO 3850; experiment: Antibacterial activity, agar-dilution MIC, organism No. 22; conditions: Providencia rettgeri, IFO3850; Organism No. 22, bouillon-agar; read-out: Minimum Inhibitory Concentration
Source text: as §1

[23] = system: Streptococcus faecium IFO 3826; experiment: Antibacterial activity, agar-dilution MIC, organism No. 27; conditions: Enterococcus faecium, IFO3826; Organism No. 27, bouillon-agar; read-out: Minimum Inhibitory Concentration
Source text: as §1

[24] = system: Mycoplasma pneumoniae IID817; experiment: Antimycoplasmal activity, MIC by phenol red colour change, organism No. 28; conditions: Mycoplasma, IID817; Organism No. 28, PPLO broth + 1% glucose, 37° C.; read-out: Minimum Inhibitory Concentration (MIC)
Experimental: Mycoplasma pneumoniae IID817 was used as the test microorganism in a culture medium prepared by adding 1% of glucose to "PPLO broth (manufactured by Difco Co.) liquid culture medium" at 37° C. with phenol red as an indicator, thereby culturing the test microorganism.

Proteus vulgaris OX-19 = experiment: Antibacterial activity, agar-dilution MIC, organism No. 20; conditions: Proteus vulgaris, OX19; Organism No. 20, bouillon-agar; read-out: Minimum Inhibitory Concentration
Source text: as §1

[25] = system: Salmonella enteritidis G 14; experiment: Antibacterial activity, agar-dilution MIC, organism No. 12; conditions: Salmonella enterica, ENTERITIDIS; Organism No. 12, bouillon-agar; read-out: Minimum Inhibitory Concentration
Source text: as §1

SMILES	MIC [1] [µg/mL]	MIC [2] [µg/mL]	MIC [3] [µg/mL]	MIC [4] [µg/mL]	MIC [5] [µg/mL]	MIC [6] [µg/mL]	MIC [7] [µg/mL]	MIC [8] [µg/mL]	MIC [9] [µg/mL]	MIC (Salmonella typhi 901) [µg/mL]	MIC [10] [µg/mL]	MIC [11] [µg/mL]	MIC [12] [µg/mL]	MIC [13] [µg/mL]	MIC [14] [µg/mL]	MIC [15] [µg/mL]	MIC [16] [µg/mL]	MIC (Proteus vulgaris HX-19) [µg/mL]	MIC [17] [µg/mL]	MIC [18] [µg/mL]	other results
[C-]#[N+]C12CC3(/C=C/C(=O)Nc4ccc(F)cc4)OC3C1O2 (stereo not shown) [compound 43]	25 (≈ 87.3 µM)	> 200	> 200	0.78 (≈ 2.72 µM)	0.39 (≈ 1.36 µM)	0.78 (≈ 2.72 µM)	6.25 (≈ 21.8 µM)	3.13 (≈ 10.9 µM)	1.56 (≈ 5.45 µM)	1.56 (≈ 5.45 µM)	> 200	> 200	0.78 (≈ 2.72 µM)	1.56 (≈ 5.45 µM)	12.5 (≈ 43.7 µM)	25 (≈ 87.3 µM)	3.13 (≈ 10.9 µM)	0.39 (≈ 1.36 µM)	0.78 (≈ 2.72 µM)	0.39 (≈ 1.36 µM)	MIC [19]: 0.2 µg/mL (≈ 0.699 µM); MIC [20]: 6.25 µg/mL (≈ 21.8 µM); MIC [21]: 6.25 µg/mL (≈ 21.8 µM); MIC (Enterobacter cloacae 963): 12.5 µg/mL (≈ 43.7 µM); MIC [22]: 1.56 µg/mL (≈ 5.45 µM); MIC [23]: 12.5 µg/mL (≈ 43.7 µM); MIC [24]: < 0.2 µg/mL; MIC (Proteus vulgaris OX-19): 0.39 µg/mL (≈ 1.36 µM); MIC [25]: 3.13 µg/mL (≈ 10.9 µM)
[C-]#[N+]C12CC3(/C=C/C(=O)N[C@@H](Cc4ccccc4)C(=O)OCc4ccccc4)OC3C1O2 (stereo partly shown) [compound 31]	> 200	> 200	> 200	> 200	> 100	> 200	> 200	> 200	> 200	> 200	> 200	> 200	> 200	> 100	> 200	> 200	> 200	> 200	> 200	> 200	MIC [19]: 6.25 µg/mL (≈ 14.5 µM); MIC [20]: > 200 µg/mL; MIC [21]: > 200 µg/mL; MIC (Enterobacter cloacae 963): > 200 µg/mL; MIC [22]: > 200 µg/mL; MIC [23]: > 200 µg/mL; MIC [24]: > 100 µg/mL; MIC (Proteus vulgaris OX-19): > 200 µg/mL; MIC [25]: > 200 µg/mL
[C-]#[N+]C12CC3(/C=C/C(=O)N[C@@H](CCC(=O)OCc4ccccc4)C(=O)OCc4ccccc4)OC3C1O2 (stereo partly shown) [Compound No. 28]	> 200	> 200	> 200	> 200	> 100	> 200	> 200	> 200	12.5 (≈ 24.9 µM)	> 200	> 200	> 200	> 200	> 100	> 200	> 200	12.5 (≈ 24.9 µM)	25 (≈ 49.7 µM)	12.5 (≈ 24.9 µM)	> 200	MIC [19]: < 1.56 µg/mL; MIC [20]: > 200 µg/mL; MIC [21]: < 1.56 µg/mL; MIC (Enterobacter cloacae 963): > 200 µg/mL; MIC [22]: > 200 µg/mL; MIC [23]: 0.5 µg/mL (≈ 0.995 µM); MIC [24]: > 100 µg/mL; MIC (Proteus vulgaris OX-19): > 200 µg/mL; MIC [25]: > 200 µg/mL
[C-]#[N+]C12CC3(/C=C/C(=O)Nc4ccc(Cl)cc4)OC3C1O2 (stereo not shown) [compound 40]	200 (≈ 661 µM)	> 200	> 200	0.1 (≈ 0.33 µM)	0.39 (≈ 1.29 µM)	< 0.05	> 200	0.39 (≈ 1.29 µM)	< 0.05	0.39 (≈ 1.29 µM)	> 200	> 200	0.1 (≈ 0.33 µM)	1.56 (≈ 5.15 µM)	> 200	> 200	0.1 (≈ 0.33 µM)	< 0.05	< 0.05	3.13 (≈ 10.3 µM)	MIC [19]: < 0.05 µg/mL; MIC [20]: 12.5 µg/mL (≈ 41.3 µM); MIC [21]: 6.25 µg/mL (≈ 20.6 µM); MIC (Enterobacter cloacae 963): 200 µg/mL (≈ 661 µM); MIC [22]: 6.25 µg/mL (≈ 20.6 µM); MIC [23]: > 200 µg/mL; MIC [24]: < 0.2 µg/mL; MIC (Proteus vulgaris OX-19): 0.1 µg/mL (≈ 0.33 µM); MIC [25]: 3.13 µg/mL (≈ 10.3 µM)
[C-]#[N+]C12CC3(/C=C/C(=O)Nc4cccc(Cl)c4)OC3C1O2 (stereo not shown) [compound 41]	> 200	> 200	> 200	0.2 (≈ 0.661 µM)	0.8 (≈ 2.64 µM)	< 0.05	> 200	0.39 (≈ 1.29 µM)	0.1 (≈ 0.33 µM)	3.13 (≈ 10.3 µM)	> 200	> 200	0.78 (≈ 2.58 µM)	1.56 (≈ 5.15 µM)	> 200	200 (≈ 661 µM)	0.39 (≈ 1.29 µM)	< 0.05	0.2 (≈ 0.661 µM)	0.1 (≈ 0.33 µM)	MIC [19]: < 0.05 µg/mL; MIC [20]: 3.13 µg/mL (≈ 10.3 µM); MIC [21]: 1.56 µg/mL (≈ 5.15 µM); MIC (Enterobacter cloacae 963): 50 µg/mL (≈ 165 µM); MIC [22]: 3.13 µg/mL (≈ 10.3 µM); MIC [23]: 3.13 µg/mL (≈ 10.3 µM); MIC [24]: < 0.2 µg/mL; MIC (Proteus vulgaris OX-19): 0.78 µg/mL (≈ 2.58 µM); MIC [25]: 3.13 µg/mL (≈ 10.3 µM)
